This note sets out measurements from patent US8435978B2, “Substituted sulfonamide compounds” (Gruenenthal GmbH, priority 2006, dated 2013).

Broadly, the inhibition is the change of the read-out against control, counted positive when it falls.

The target of assay [1] is T1, B1R receptor of the rat (Rattus norvegicus, UniProt P97583).
T1 construct: host or cells: CHO K1 cells (Chinese hamster ovary), stably transfected
T1 sequence (P97583 1-337): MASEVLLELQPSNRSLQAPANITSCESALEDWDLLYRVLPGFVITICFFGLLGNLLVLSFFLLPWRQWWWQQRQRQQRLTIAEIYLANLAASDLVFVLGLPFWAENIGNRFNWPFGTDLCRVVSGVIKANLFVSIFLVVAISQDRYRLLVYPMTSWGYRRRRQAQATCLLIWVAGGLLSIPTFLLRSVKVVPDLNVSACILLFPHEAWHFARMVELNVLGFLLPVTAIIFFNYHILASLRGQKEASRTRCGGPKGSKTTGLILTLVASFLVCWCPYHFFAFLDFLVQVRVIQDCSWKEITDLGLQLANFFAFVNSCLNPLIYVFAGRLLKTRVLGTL
Put plainly: Functional study on the bradykinin receptor 1 (B1R), FLIPR Ca2+ assay, rB1R cells. It counts as cell-based. Conditions: CHO-K1, test substance 10 μM, agonist Des-Arg9-bradykinin 100 nM, % inhibition compared with the maximum achievable inhibition, read-out: B1R Antagonism, rat [10 μM] % Inhibition. The procedure: (§1) The agonistic or antagonistic action of substances can be quantified on the bradykinin receptor 1 (B1R) of the species human and rat with ectopically expressing cell lines (CHO K1 cells) and with the aid of a Ca^2+-sensitive dye (Fluo-4) using a fluorescent imaging plate reader (FLIPR). The indication in % activation is based on the Ca^2+ signal after addition of Lys-Des-Arg^9-bradykinin (0.5 nM) or Des-Arg^9-bradykinin (100 nM). Antagonists result in a suppression of the Ca^2+ influx following administration of the agonist. The % inhibition in comparison with the maximum achievable inhibition is indicated.
(§2) The agonistic or antagonistic action of substances can be determined on the bradykinin receptor 1 (B1R) of the species human and rat using the following assay. According to this assay, the Ca^2+ influx through the channel is quantified with the aid of a Ca^2+-sensitive dye (type Fluo-4, Molecular Probes Europe BV, Leiden, Netherlands) using a Fluorescent Imaging Plate Reader (FLIPR, Molecular Devices, Sunnyvale, USA).
(§3) Chinese hamster ovary cells (CHO K1 cells) which have been stably transfected with the human B1R gene (hB1R cells, Euroscreen s.a., Gosselies, Belgium) or with the B1R gene of the rat (rB1R cells, Axxam, Milan, Italy) are used. For functional studies, the cells are plated out on black 96-well plates having a clear base (BD Biosciences, Heidelberg, Germany) in a density of 20,000-25,000 cells/well. The cells are incubated overnight at 37° C. and with 5% CO2 in culture medium (hB1R cells: Nutrient Mixture Ham's F12, Gibco Invitrogen GmbH, Karlsruhe, Germany; rB1R cells: D-MEM/F12, Gibco Invitrogen GmbH, Karlsruhe, Germany), with 10 vol. % FBS (fetal bovine serum, Gibco Invitrogen GmbH, Karlsruhe, Germany). On the following day, the cells are loaded for 60 minutes at 37° C. with 2.13 μM Fluo-4 (Molecular Probes Europe BV, Leiden, Netherlands) in HBSS buffer (Hank's buffered saline solution, Gibco Invitrogen GmbH, Karlsruhe, Germany) […] (Sigma-Aldrich, Taufkirchen, Germany) and 10 mM HEPES (Sigma-Aldrich, Taufkirchen, Germany). The plates are then washed twice with HBSS buffer, and HBSS buffer additionally containing 0.1% BSA (bovine serum albumin; Sigma-Aldrich, Taufkirchen, Germany), 5.6 mM glucose and 0.05% gelatin (Merck KGaA, Darmstadt, Germany) is added to the plates. After incubation for a further 20 minutes at room temperature, the plates are inserted into the FLIPR for Ca^2+ measurement. The Ca^2+-dependent fluorescence is measured before and after the addition of substances (λex=488 nm, λem=540 nm). Quantification is carried out by measuring the highest fluorescence intensity (FC, fluorescence counts) over time.
(§4) The FLIPR protocol consists of 2 substance additions. Test substances (10 μM) are first pipetted onto the cells and the Ca^2+ influx is compared with the control (hB1R: Lys-Des-Arg^9-bradykinin 0.5 nM; rB1R: Des-Arg^9-bradykinin 100 nM). This gives the activation in %, based on the Ca^2+ signal after addition of Lys-Des-Arg^9-bradykinin (0.5 nM) or Des-Arg^9-bradykinin (100 nM).
(§5) After 10 minutes' incubation, 0.5 nM Lys-Des-Arg^9-bradykinin (hB1R) or 100 nM Des-Arg^9-bradykinin (rB1R) are applied, and the influx of Ca^2+ is likewise determined. Antagonists lead to suppression of the Ca^2+ influx. The % inhibition compared with the maximum achievable inhibition is calculated.

Assay [2] deals with T2, human B1R receptor (Homo sapiens, UniProt P46663).
T2 construct: host or cells: CHO K1 cells (Chinese hamster ovary), stably transfected
T2 sequence (P46663 1-353): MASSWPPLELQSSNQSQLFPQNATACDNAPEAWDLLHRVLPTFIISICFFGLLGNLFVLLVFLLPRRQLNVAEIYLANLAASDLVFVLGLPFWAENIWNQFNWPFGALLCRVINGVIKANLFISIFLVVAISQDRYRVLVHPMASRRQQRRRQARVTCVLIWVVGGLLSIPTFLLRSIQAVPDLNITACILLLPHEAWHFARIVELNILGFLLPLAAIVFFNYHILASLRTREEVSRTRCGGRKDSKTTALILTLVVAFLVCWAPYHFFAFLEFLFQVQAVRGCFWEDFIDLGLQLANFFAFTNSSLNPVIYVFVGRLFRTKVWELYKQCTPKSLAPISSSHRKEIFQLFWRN
Put plainly: Functional study on the bradykinin receptor 1 (B1R), FLIPR Ca2+ assay, hB1R cells. The format is cell-based. As to conditions: CHO-K1, test substance 10 μM, agonist Lys-Des-Arg9-bradykinin 0.5 nM, % inhibition compared with the maximum achievable inhibition, read-out: B1R Antagonism, human [10 μM] % Inhibition. The procedure: as §1, §2, §3, §4, §5

Consider `COc1cc(C)c(S(=O)(=O)N2CCCCC2COCC(=O)N2CCN(c3ccc(C)c(C)c3)CC2)c(C)c1` (centres unmarked) [Example 512, 1-(4-(3,4-dimethylphenyl)piperazin-1-yl)-2-((1-(4-methoxy-2,6-dimethylphenylsulfonyl)piperidin-2-yl)methoxy)ethanone], for which the inhibition at 10 µM in assay [1] is 102%; in assay [2], 93%. For the molecule `COc1cc(C)c(S(=O)(=O)N2CCCCC2COCC(=O)Nc2cc(-c3ccc(Cl)cc3)n[nH]2)c(C)c1` (centres unmarked) [Example 537, N-(3-(4-chlorophenyl)-1H-pyrazol-5-yl)-2-((1-(4-methoxy-2,6-dimethylphenylsulfonyl)piperidin-2-yl)methoxy)acetamide], the inhibition at 10 µM was 98.7% in assay [1] and 12.5% in assay [2]. The corresponding values for `CC(C)N(CCN1CCN(C(=O)COCC2CCCCN2S(=O)(=O)c2c(Cl)cccc2Cl)CC1)C(C)C` (centres unmarked) [Example 281, 2-((1-(2,6-dichlorophenylsulfonyl)piperidin-2-yl)methoxy)-1-(4-(2-(diisopropylamino)ethyl)piperazin-1-yl)ethanone] are 92.4% and 104%.

On to `Cc1cc(C)c(S(=O)(=O)N2Cc3ccccc3CC2COCC(=O)N2CCN(C3CCN(C)CC3)CC2)c(C)c1` (centres unmarked) [Example 5, 1-[4-(1-methyl-piperidin-4-yl)-piperazin-1-yl]-2-[2-(2,4,6-trimethyl-phenylsulfonyl)-1,2,3,4-tetrahydro-isoquinolin-3-ylmethoxy]-ethanone], for which the inhibition at 10 µM in assay [1] and in assay [2] was 103% in each case. Take `Cc1cc(C)c(S(=O)(=O)N2CCCCC2COCC(=O)NCC2CCCN(Cc3ccccc3)C2)c(C)c1` (centres unmarked) [Example 12, N-(1-benzyl-piperidin-3-ylmethyl)-2-[1-(2,4,6-trimethyl-phenylsulfonyl)-piperidin-2-ylmethoxy]-acetamide]: the inhibition at 10 µM was 74.9% in assay [1] and 99.1% in assay [2]. As to `Cc1cc(C)c(S(=O)(=O)N2CCCCC2COCC(=O)N2CCC(N3CCN(C)CC3)CC2)c(C)c1` (centres unmarked) [Example 231, 2-((1-(mesitylsulfonyl)piperidin-2-yl)methoxy)-1-(4-(4-methylpiperazin-1-yl)piperidin-1-yl)ethanone], the inhibition at 10 µM in assay [1] was 83.3%; in assay [2], 102%.

Regarding `COc1cc(C)c(S(=O)(=O)N2CCCCC2COCC(=O)NC(CN2CCCC2)c2ccccc2)c(C)c1` (centres unmarked) [Example 262, 2-((1-(4-methoxy-2,6-dimethylphenylsulfonyl)piperidin-2-yl)methoxy)-N-(1-phenyl-2-(pyrrolidin-1-yl)ethyl)acetamide], the inhibition at 10 µM in assay [1] turned out to be 99.7%; in assay [2], 81.8%. `COc1cc(C)c(S(=O)(=O)N2CCCC2COCC(=O)NCc2ccc(N3CCCCC3)cc2)c(C)c1` (centres unmarked) [Example 60, 2-[1-(4-methoxy-2,6-dimethyl-phenylsulfonyl)-pyrrolidin-2-ylmethoxy]-N-(4-piperidin-1-yl-benzyl)-acetamide]: the inhibition at 10 µM was 109% in assay [1] and 59.9% in assay [2]. Consider `O=C(COCC1CCCCN1S(=O)(=O)c1ccc(Br)cc1)N1CCN(c2ccncc2)CC1` (centres unmarked) [Example 126, 2-((1-(4-bromophenylsulfonyl)piperidin-2-yl)methoxy)-1-(4-(pyridin-4-yl)piperazin-1-yl)ethanone], for which the inhibition at 10 µM turned out to be 81.1% in assay [1] and 46.4% in assay [2]. As to `O=C(COCC1CCCN1S(=O)(=O)c1c(Cl)cc(Cl)cc1Cl)NCc1ccc(N2CCOCC2)cc1` (centres unmarked) [Example 580, N-(4-morpholinobenzyl)-2-((1-(2,4,6-trichlorophenylsulfonyl)pyrrolidin-2-yl)methoxy)acetamide], the inhibition at 10 µM in assay [1] came out at 88.5%; in assay [2], 39.1%. Consider `COc1ccc(S(=O)(=O)N2CCCCC2COCC(=O)N2CCN(CCOc3ccccc3)CC2)cc1` (centres unmarked) [Example 558, 2-((1-(4-methoxyphenylsulfonyl)piperidin-2-yl)methoxy)-1-(4-(2-phenoxyethyl)piperazin-1-yl)ethanone], for which the inhibition at 10 µM in assay [1] was 103%; in assay [2], -3.53%. As for `COc1cc(C)c(S(=O)(=O)N2CCCCC2COCC(=O)N2CCN(Cc3ccc(C)cc3)CC2)c(C)c1` (centres unmarked) [Example 385, 2-((1-(4-methoxy-2,6-dimethylphenylsulfonyl)piperidin-2-yl)methoxy)-1-(4-(4-methylbenzyl)piperazin-1-yl)ethanone], the inhibition at 10 µM in assay [1] was determined as 99.5%; in assay [2], 101%. In the case of `COc1ccc(S(=O)(=O)N2CCCCC2CCOCC(=O)N2CCN(CCc3ccccc3)CC2)cc1` (centres unmarked) [Example 91, 2-(2-(1-(4-methoxyphenylsulfonyl)piperidin-2-yl)ethoxy)-1-(4-phenethylpiperazin-1-yl)ethanone], in assay [2], the inhibition at 10 µM turned out to be 48.8%. Still for that read-out and setting: the value for `CN(C(=O)COCC1CCCCN1S(=O)(=O)c1c(Cl)cc(C(F)(F)F)cc1Cl)[C@H]1CCN(Cc2ccccc2)C1` (stereo partly drawn) [Example 574, N—((S)-1-benzylpyrrolidin-3-yl)-2-((1-(2,6-dichloro-4-(trifluoromethyl)phenylsulfonyl)piperidin-2-yl)methoxy)-N-methylacetamide] was 90%. As to `CN1CCC(CN2CCN(C(=O)COCC3CCCCN3S(=O)(=O)c3csc4ccccc34)CC2)CC1` (centres unmarked) [Example 573, 2-((1-(benzo[b]thiophen-3-ylsulfonyl)piperidin-2-yl)methoxy)-1-(4-((1-methylpiperidin-4-yl)methyl)piperazin-1-yl)ethanone], in assay [1], the inhibition at 10 µM was 101%. Turning to `CN(C(=O)COCC1CCCCN1S(=O)(=O)c1ccccc1C(F)(F)F)[C@H]1CCN(Cc2ccccc2)C1` (stereo partly drawn) [Example 218, N—((S)-1-benzylpyrrolidin-3-yl)-N-methyl-2-((1-(2-(trifluoromethyl)phenylsulfonyl)piperidin-2-yl)methoxy)acetamide], the inhibition at 10 µM in assay [2] is 100%.

Take `CN1CCN(C2CCN(C(=O)COCC3CCCCN3S(=O)(=O)c3csc4ccccc34)CC2)CC1` (centres unmarked) [Example 572, 2-((1-(benzo[b]thiophen-3-ylsulfonyl)piperidin-2-yl)methoxy)-1-(4-(4-methylpiperazin-1-yl)piperidin-1-yl)ethanone]: the inhibition at 10 µM in assay [1] came to 99%.
